Measurements: patent US20070293484A1, “Thiophene Heteroaryl Amines” (SUGEN, INC., priority 2004, published 2007)

Assays:
GST-Flk1 = target: T1, GST-Flk1 (Mus musculus, UniProt P35918); experiment: GST-FLK-1 bioassay (ELISA, tyrosine kinase activity on poly(glu,tyr)); type: biochemical
T1 construct: GST-Flk1cd purified from sf9 recombinant baculovirus transformation (SUGEN, Inc.); host or cells: Sf9 insect cells (recombinant baculovirus)
Procedure: The assays described herein are performed in an ELISA (Enzyme-Linked Immunosorbent Sandwich Assay) format (Voller, et al., 1980, “Enzyme-Linked Immunosorbent Assay,” Manual of Clinical Immunology, 2d ed., Rose and Friedman, Am. Soc. Of Microbiology, Washington, D.C., pp. 359-371). The general procedure is as follows: a compound is introduced to cells expressing the test kinase, either naturally or recombinantly, for a selected period of time after which, if the test kinase is a receptor, a ligand known to activate the receptor is added. The cells are lysed and the lysate is transferred to the wells of an ELISA plate previously coated with a specific antibody recognizing the substrate of the enzymatic phosphorylation reaction. Non-substrate components of the cell lysate are washed away and the amount of phosphorylation on the substrate is detected with an antibody specifically recognizing phosphotyrosine compared with control cells that were not contacted with a test compound.
This assay analyzes the tyrosine kinase activity of GST-Flk1 on poly(glu,tyr) peptides.
• 1. Corning 96-well ELISA plates (Corning Catalog No. 5805-96). • 2. poly(glu,tyr) 4:1, lyophilizate (Sigma Catalog #P0275). • 3. Preparation of poly(glu,tyr)(pEY) coated assay plates: Coat 2 ug/well of poly(glu,tyr)(pEY) in 100 μL PBS, hold at room temperature for 2 hours or at 4° C. overnight. Cover plates well to prevent evaporation. • 4. PBS Buffer: for 1 L, mix 0.2 g KH2PO4, 1.15 g Na2HPO4, 0.2 g KCl and 8 g NaCl in approx. 900 ml dH2O. When all reagents have dissolved, adjust the pH to 7.2 with HCl. Bring total volume to 1 L with dH2O. • 5. PBST Buffer: to 1 L of PBS Buffer, add 1.0 ml Tween-20. • 6. TBB—Blocking Buffer: for 1 L, mix 1.21 g TRIS, 8.77 g NaCl, 1 ml TWEEN-20 in approximately 900 ml dH2O. Adjust pH to 7.2 with HCl. Add 10 g BSA, stir to dissolve. Bring total volume to 1 L with dH2O. Filter to remove particulate matter. • 7. 1% BSA in PBS: To make a 1× working solution, add 10 g BSA to approx. 990 ml PBS buffer, stir to dissolve. Adjust total volume to 1 L with PBS buffer, filter to remove particulate matter. • 8. 50 mM Hepes pH 7.5. • 9. GST-Flk1cd purified from sf9 recombinant baculovirus transformation (SUGEN, Inc.). • 10. 4% DMSO in dH2O. • 11. 10 mMATP in dH2O. • 12. 40 mM MnCl2 • 13. Kinase Dilution Buffer (KDB): mix 10 ml Hepes (pH 7.5), 1 ml 5M NaCl, 40 μL 100 mM sodium orthovanadate and 0.4 ml of 5% BSA in dH2O with 88.56 ml dH2O. • 14. NUNC 96-well V bottom polypropylene plates, Applied Scientific Catalog #AS-72092 • 15. EDTA: mix 14.12 g ethylenediaminetetraacetic acid (EDTA) to approx. 70 ml dH2O. Add 10 N NaOH until EDTA dissolves. Adjust pH to 8.0. Adjust total volume to 100 ml with dH2O. • 16. 1^0 Antibody Dilution Buffer: mix 10 ml of 5% BSA in PBS buffer with 89.5 ml TBST. • 17. Anti-phosphotyrosine monoclonal antibody conjugated to horseradish peroxidase (PY99 HRP, Santa Cruz Biotech). • 18. 2,2′-Azinobis(3-ethylbenzthiazoline-6-sulfonic acid (ABTS, Moss, Cat. No. ABST). • 19. 10% SDS. Procedure: • 1. Coat Corning 96-well ELISA plates with 2 μg of polyEY peptide in sterile PBS as described in step 3 of Materials and Reagents. • 2. Remove unbound liquid from wells by inverting plate. Wash once with TBST. Pat the plate on a paper towel to remove excess liquid. • 3. Add 100 μl of 1% BSA in PBS to each well. Incubate, with shaking, for 1 hr. at room temperature. • 4. Repeat step 2. • 5. Soak wells with 50 mM HEPES (pH7.5) (150 μl/well). • 6. Dilute test compound with dH2O/4% DMSO to 4 times the desired final assay concentration in 96-well polypropylene plates. • 7. Add 25 μl diluted test compound to ELISA plate. In control wells, place 25 μl of dH2O/4% DMSO. • 8. Add 25 μl of 40 mM MnCl2 with 4×ATP (2 μM) to each well. • 9. Add 25 μl 0.5M EDTA to negative control wells. • 10. Dilute GST-Flk1 to 0.005 μg (5 ng)/well with KDB. • 11. Add 50 μl of diluted enzyme to each well. • 12. Incubate, with shaking, for 15 minutes at room temperature. • 13. […]

PDGFR = target: T2, PDGFR (Homo sapiens, UniProt P09619); experiment: PDGFR bioassay (ELISA, in vitro kinase activity); type: biochemical; details: PDGFR-β expressing NIH 3T3 cell lysate; read-out: IC50 (μM) PDGF-R
T2 construct: SUGEN, Inc; host or cells: NIH 3T3 cell lysate; receptor captured on plate with monoclonal anti-PDGFR antibody 28D4C10
T2 sequence (P09619 33-1106, species assumed): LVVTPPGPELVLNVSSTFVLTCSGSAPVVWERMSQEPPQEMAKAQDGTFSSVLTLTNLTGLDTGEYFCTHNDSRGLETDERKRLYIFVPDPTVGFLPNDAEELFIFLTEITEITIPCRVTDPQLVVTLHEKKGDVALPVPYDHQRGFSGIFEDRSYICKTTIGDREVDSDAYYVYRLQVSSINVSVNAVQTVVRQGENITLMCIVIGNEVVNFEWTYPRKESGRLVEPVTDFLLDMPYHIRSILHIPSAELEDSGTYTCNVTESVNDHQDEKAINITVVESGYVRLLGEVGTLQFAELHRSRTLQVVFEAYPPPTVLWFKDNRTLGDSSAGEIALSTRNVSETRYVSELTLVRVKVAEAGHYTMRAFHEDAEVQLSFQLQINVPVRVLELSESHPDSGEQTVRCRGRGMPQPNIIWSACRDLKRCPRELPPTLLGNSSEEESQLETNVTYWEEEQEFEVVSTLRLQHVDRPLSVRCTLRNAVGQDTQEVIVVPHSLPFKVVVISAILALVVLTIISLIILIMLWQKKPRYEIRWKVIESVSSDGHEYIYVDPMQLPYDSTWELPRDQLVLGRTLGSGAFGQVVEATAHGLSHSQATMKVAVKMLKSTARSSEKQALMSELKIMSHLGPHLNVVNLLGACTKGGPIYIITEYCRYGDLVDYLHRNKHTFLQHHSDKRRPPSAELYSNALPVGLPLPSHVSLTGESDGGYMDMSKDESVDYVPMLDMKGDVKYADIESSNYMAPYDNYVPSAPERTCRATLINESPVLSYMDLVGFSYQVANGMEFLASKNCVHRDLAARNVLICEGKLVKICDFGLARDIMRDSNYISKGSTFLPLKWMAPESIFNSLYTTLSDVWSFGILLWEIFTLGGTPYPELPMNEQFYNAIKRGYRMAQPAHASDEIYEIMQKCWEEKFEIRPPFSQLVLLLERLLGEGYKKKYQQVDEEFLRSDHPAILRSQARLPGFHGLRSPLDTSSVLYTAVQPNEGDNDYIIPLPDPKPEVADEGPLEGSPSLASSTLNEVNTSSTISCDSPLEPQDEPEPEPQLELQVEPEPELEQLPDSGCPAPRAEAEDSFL

T1 sequence (P35918 784-1345 limits assumed): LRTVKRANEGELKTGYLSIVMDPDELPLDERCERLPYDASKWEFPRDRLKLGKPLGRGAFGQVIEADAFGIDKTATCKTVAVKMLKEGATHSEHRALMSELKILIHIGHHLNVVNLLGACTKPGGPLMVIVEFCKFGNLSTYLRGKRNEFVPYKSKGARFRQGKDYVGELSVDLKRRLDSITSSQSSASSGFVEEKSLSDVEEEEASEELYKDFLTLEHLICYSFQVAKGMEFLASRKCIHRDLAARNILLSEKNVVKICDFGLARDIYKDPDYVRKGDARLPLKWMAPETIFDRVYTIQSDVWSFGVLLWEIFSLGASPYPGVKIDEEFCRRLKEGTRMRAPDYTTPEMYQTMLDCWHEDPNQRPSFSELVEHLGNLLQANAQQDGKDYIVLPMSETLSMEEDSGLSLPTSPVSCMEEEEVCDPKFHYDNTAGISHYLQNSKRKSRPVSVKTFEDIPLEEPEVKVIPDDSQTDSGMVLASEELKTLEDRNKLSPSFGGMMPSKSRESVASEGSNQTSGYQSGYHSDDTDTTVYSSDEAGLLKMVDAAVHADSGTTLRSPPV

Structure (SMILES)	IC50 (GST-Flk1) [µM]	IC50 (PDGFR) [µM]
O=C(CN1CCOCC1)Nc1ccc(Nc2ncc(-c3ccsc3)cn2)cc1 [Example 26, 2-morpholin-4-yl-N-{4-[(5-thien-3-ylpyrimidin-2-yl)amino]phenyl}acetamide]	5.6	1.1
O=C(CN1CCCC1CN1CCCC1)Nc1ccc(Nc2ncc(-c3ccsc3)cn2)cc1 (stereo not shown) [Example 22, 2-[2-(pyrrolidin-1-ylmethyl)pyrrolidin-1-yl]-N-{4-[(5-thien-3-ylpyrimidin-2-yl)amino]phenyl}acetamide]	4.5	0.41
CC(=O)Nc1ccc(Nc2ncc(-c3ccsc3)cn2)cc1 [Example 2, N-{4-[(5-thien-3-ylpyrimidin-2-yl)amino]phenyl}acetamide]	3.74	0.07
CCN(CC)CC(=O)Nc1ccc(Nc2ncc(-c3ccsc3)cn2)cc1 [Example 27, N-(4-(5-(thiophen-3-yl)pyrimidin-2-ylamino)phenyl)-2-(diethylamino)acetamide]	6	0.55
COc1ccc(NC(=O)Nc2ncc(-c3ccsc3)cn2)cc1 [Example 9, N-(4-methoxyphenyl)-N′-(5-thien-3-ylpyrimidin-2-yl)urea]	> 20	> 20
O=C(Nc1ccccc1)c1cccc(Nc2ncc(-c3cccs3)cn2)c1 [Example 18, N-phenyl-3-[(5-thien-2-ylpyrimidin-2-yl)amino]benzamide]	> 20	> 20
CC(=O)Nc1cccc(Nc2ncc(-c3cccs3)cn2)c1 [Example 14, N-{3-[(5-thien-2-ylpyrimidin-2-yl)amino]phenyl}acetamide]	4.17	0.94
Nc1cccc(Nc2ncc(-c3ccsc3)cn2)c1 [Example 6, N-(5-thien-3-ylpyrimidin-2-yl)benzene-1,3-diamine]	1.53	0.06
CN1CCN(Cc2ccc(C(=O)Nc3cccc(Nc4ncc(-c5ccsc5)cn4)c3)cc2)CC1 [Example 11, 4-[(4-methylpiperazin-1-yl)methyl]-N-{3-[(5-thien-3-ylpyrimidin-2-yl)amino]phenyl}benzamide]	0.73	0.22
Nc1ccc(Nc2ncc(-c3ccsc3)cn2)cc1 [Example 8, N-(5-thien-3-ylpyrimidin-2-yl)benzene-1,4-diamine]	4.14	0.55
CC(=O)Nc1ccc(Nc2ncc(-c3cccs3)cn2)cc1 [Example 13, N-[4-(5-thien-2-ylpyrimidin-2-ylamino]phenyl]acetamide]	9.86	0.44
O=C(CN1CCC(O)CC1)Nc1ccc(Nc2ncc(-c3ccsc3)cn2)cc1 [Example 28, 2-(4-hydroxypiperidin-1-yl)-N-{4-[(5-thien-3-ylpyrimidin-2-yl)amino]phenyl}acetamide]	4.9	0.57

Other lines, results leading:

IC50 (GST-Flk1) [µM]	IC50 (PDGFR) [µM]	Structure (SMILES)
1.7	0.16	CCN(CC)CCNC(=O)Nc1cccc(Nc2ncc(-c3ccsc3)cn2)c1 [Example 50]
2.3	0.18	O=C(Nc1cccc(Nc2ncc(-c3ccsc3)cn2)c1)N1CCC(N2CCCC2)CC1 [Example 54, 4-pyrrolidin-1-yl-piperidine-1-carboxylic acid [3-(5-thiophen-3-yl-pyrimidin-2-ylamino)-phenyl]-amide]
4.55	0.66	O=C(Nc1ccc(Nc2ncc(-c3ccsc3)cn2)cc1)N1CCCC1CN1CCCC1 (stereo not shown) [Example 33, 2-(pyrrolidin-1-ylmethyl)-N-{4-[(5-thien-3-ylpyrimidin-2-yl)amino]phenyl}pyrrolidine-1-carboxamide]
10	2.6	Cc1ccc(Nc2ncc(-c3ccsc3)cn2)cc1NC(=O)c1ccc(CN2CCN(C)CC2)cc1 [Example 40, 4-(4-methyl-piperazin-1-ylmethyl)-N-[2-methyl-5-(5-thiophen-3-yl-pyrimidin-2-ylamino)-phenyl]-benzamide]
2.7	0.09	O=C(CNCC(O)CN1CCOCC1)Nc1cccc(Nc2ncc(-c3ccsc3)cn2)c1 (stereo not shown) [Example 59, 2-(2-hydroxy-3-morpholin-4-yl-propylamino)-N-[3-(5-thiophen-3-yl-pyrimidin-2-ylamino)-phenyl]-acetamide]
3.1	0.23	CCN(CC)CCNCC(=O)Nc1cccc(Nc2ncc(-c3ccsc3)cn2)c1 [Example 57, 2-(2-diethylamino-ethylamino)-N-[3-(5-thiophen-3-yl-pyrimidin-2-ylamino)-phenyl]-acetamide]
2.3	0.22	CN1CCN(CCNC(=O)Nc2cccc(Nc3ncc(-c4ccsc4)cn3)c2)CC1 [Example 53, 1-[2-(4-methyl-piperazin-1-yl)-ethyl]-3-[3-(5-thiophen-3-yl-pyrimidin-2-ylamino)-phenyl]-urea]
2.7	0.19	O=C(CN1CCC(N2CCCC2)CC1)Nc1cccc(Nc2ncc(-c3ccsc3)cn2)c1 [Example 55, 2-(4-pyrrolidin-1-yl-piperidine-1-yl)-N-[3-(5-thiophen-3-yl-pyrimidin-2-ylamino)-phenyl]-acetamide]
5.4	0.47	CN1CCN(C(=O)Nc2ccc(Nc3ncc(-c4ccsc4)cn3)cc2)CC1 [Example 35, 4-methyl-N-{4-[(5-thien-3-ylpyrimidin-2-yl)amino]phenyl}piperazine-1-carboxamide]
6.2	0.5	O=C(Nc1ccc(Nc2ncc(-c3ccsc3)cn2)cc1)N1CCC(N2CCCC2)CC1 [Example 30, 4-pyrrolidin-1-yl-N-{4-[(5-thien-3-ylpyrimidin-2-yl)amino]phenyl}piperidine-1-carboxamide]
3.7	0.56	CC(C)Nc1cccc(Nc2ncc(-c3ccsc3)cn2)c1 [Example 37, N-isopropyl-N′-(5-thien-3-ylpyrimidin-2-yl)benzene-1,3-diamine]
2.4	0.09	O=C(CNCCN1CCOCC1)Nc1cccc(Nc2ncc(-c3ccsc3)cn2)c1 [Example 56, 2-(2-morpholin-4-yl-ethylamino)-N-[3-(5-thiophen-3-yl-pyrimidin-2-ylamino)-phenyl]-acetamide]
1.9	0.14	O=C(NCCN1CCOCC1)Nc1cccc(Nc2ncc(-c3ccsc3)cn2)c1 [Example 49]
5.2	0.78	O=C(NCCN1CCOCC1)Nc1ccc(Nc2ncc(-c3ccsc3)cn2)cc1 [Example 31, N-(2-morpholin-4-ylethyl)-N′-{4-[(5-thien-3-ylpyrimidin-2-yl)amino]phenyl}urea]
